Read-outs that look alike come from different tables or passages of the source.
Key:
[1] = test system: old dogs presenting behavioral disorders associated with CDS; assay: Study of SAMe in old dogs presenting behavioral disorders associated with CDS (Example 1); assay type: in vivo; conditions: for dogs showing an improvement in activity level (owners) / mean activity level of the animals as observed by a veterinarian: at least 2.5 mg SAMe per kg per day
Procedure: A study was conducted to show the efficacy of S-adenosyl-L-methionine in old dogs presenting behavioral disorders associated with CDS.
S-adenosyl-L-methionine was administered in the form of tablets containing 10, 50 or 100 mg of SAMe.
15 dogs more than 7 years old were selected with no restrictions on breed, sex or weight. All the dogs presented well-established cognitive disorders associated with CDS (cleanliness problems, disorders of activity-sleep cycle, decrease in activity) which had been observed by their owners and by veterinarians.
Dogs presenting diseases requiring medical treatment were excluded from the study, as were dogs which had been treated with psychotropic drugs in the month preceding the study. Also, to avoid biases in the observations, heart, kidney and liver treatments and psychoactive drugs were not permitted during the study.
During the study the dogs received at least the equivalent of 2.5 mg of SAMe per kg of body weight per day in a single daily administration over a period of 4 months.
The dogs were examined by a veterinarian at the start of the experiment and then every month. The blood parameters were analyzed at each veterinary examination.
Experiment number 1: Measurement of the activity level of the dogs.
Experiment number 2: Measurement of the effect on the sleeping time of the dogs.
Experiment number 3: Evaluation of the effect on the anxiety of the dogs.

[2] = test system: old dogs with behavioral disorders; assay: Randomized double-blind placebo-controlled study on reduced mental capacity of old dogs (Example 4); assay type: in vivo
Procedure: These behavioral disorders manifested themselves as follows: disorientation, decrease in activity, decrease in social interactions, changes in activity-sleep cycle, lack of cleanliness, anxiety.
The dogs were randomly assigned to one of two treatment groups: SAMe or placebo. […]
The dogs were examined by an investigator at the start of the experiment and then at 30 days and 60 days.
The examinations looked at the various behavioral disorders of the animals, which were evaluated on a scale of 0 to 3 according to their intensity, and all the scores were added together to give a “standardized geriatric behavior score” reflecting the severity of the problems observed.

[3] = test system: old cats with cognitive disorders
Procedure: A study was conducted to show the effects of S-adenosyl-L-methionine on age-related behavioral disorders in cats.
SAMe was administered in the form of tablets containing 90 mg of an S-adenosyl-L-methionine salt (the 1,4-butanedisulfonate).
The tablets were given once a day for a period of 3 consecutive months to comply with the following doses: • Mean dose: 18 (±3.4) mg/kg/d; minimum dose: 12.9 mg/kg/d; maximum dose: 22.5 mg/kg/d.
The blood parameters were analyzed by the veterinarian every month. The owners were also asked to give their opinion on the changes observed in the behavior of their pets.

[4] = test system: dogs presenting signs of fear; assay: Effect of the nutritional supplement on behavior and physical signs associated with fear in dogs (Example 2); assay type: in vivo; conditions: 7.5 mg SAMe/kg/day oral for one month, then 2.5 mg/kg/day for two months; sum of 6 parameter scores (FIG. 4)
Procedure: Another study was conducted to show the effect of administering to dogs a nutritional supplement based on S-adenosyl-L-methionine on the behavior and physical signs associated with fear.
The nutritional supplement used in this test consisted of tablets containing 10, 50 or 100 mg of SAMe. It was administered to the animals at a loading dose of 7.5 mg of SAMe per kg of body weight per day in a single daily oral administration for one month, and then at a maintenance dose of 2.5 mg of SAMe per kg of body weight per day in a single daily oral administration for the next two months.
15 dogs aged between 6 months and 15 years are selected with no restrictions on breed, sex or weight. In the two months preceding inclusion in the study, all the dogs presented signs of fear associated either with inhibited behavior or, conversely, with exaggerated responses. This type of problem had to have been identified in the dog for more than two months. The “overall fear score” (sum of the individual scores for the various parameters monitored) recorded at the start of the experiment had to be greater than 7, the parameters observed being as follows: • Pupil dilation. Score: 0=normal, 1=increased, 2=complete. • Trembling. Score: 0=none, 1=slight, 2=pronounced. • Exploration. […]

[5] = after two months of treatment, tosylate salt, 18.5 mg/kg/d
[6] = response to the treatment at D60, n = 17, tosylate salt, 18.5 mg/kg/d
[7] = 3 months, 1,4-butanedisulfonate salt, mean 18 mg/kg/d (FIG. 6)

In the case of `C[S@@+](CC[C@H](N)C(=O)O)C[C@H]1O[C@@H](n2cnc3c(N)ncnc32)[C@H](O)[C@@H]1O` [SAMe, 5′-[[3S-amino-3-carboxypropyl]methyl-(S)-sulfonio]-5′-deoxyadenosine], the “dogs showing an improvement in activity level (owners)” value ([1]; after one month) is reported as “more than 70%”, the “mean activity level of the animals as observed by a veterinarian” value ([1]; after one month, tablets, single daily administration, score -1 reduced, 0 unchanged, 1 increased (FIG. 1)) is reported as “increased significantly” and the “mean activity level of the animals as observed by a veterinarian” value ([1]; after the first month, up to 4 months) is reported as “remained above the animals' normal activity”. For the same compound, the “sleeping time of the animals” value ([1]; daily for 4 months, variations decreased considerably after two months (FIG. 2)) was “tended to normalize”, the “efficacy as considered by the owners” value ([1]; end of the study (4 months)) was “very good” and the “dogs showing an improvement in activity level (owners)” value ([1]; first two weeks of the treatment) was 38%. For the same compound, the “anxiety of the animals” value ([1]; throughout the 4-month period, score 0 none to 3 permanent (FIG. 3)) was “decreased regularly”, the “average improvement in terms of activity” value [2, 5] was 57.1% and the “average improvement in terms of learning behavior, more particularly cleanliness” value [2, 5] was 57.1%. For the same compound, the “average improvement in terms of reactivity” value [2, 5] was 59.5%, the “owners' impression of their animals under treatment” value ([2]; end of the study, majority of the owners) was “more active and reactive” and the “% of dogs, Good response” value [2, 6] was 41.2%. The “% of dogs, No response” value [2, 6] was 35.3%, the “% of dogs, Poor response” value [2, 6] was 23.5% and the “No. of dogs, Good response” value [2, 6] was 7. For the same compound, the “No. of dogs, No response” value [2, 6] was 6, the “No. of dogs, Poor response” value [2, 6] was 4 and the “reduction of the standardized geriatric behavior score” value ([2]; tosylate salt tablets once a day, average 18.5 mg/kg/d, versus placebo over the study period (FIG. 11)) was “more significant with SAMe than with placebo”. The “cases with improved elimination behavior” value [3, 7] was 40%, the “cats with improved elimination behavior (number)” value [3, 7] was 2 out of 5 and the “cats exhibiting ambulation or vocalization periods” value ([3]; 15 days after the start of the experiment (70% at the start)) was 30%. The “play activity of the cats” value ([3]; after one month (FIG. 8)) was “promising net effect”, the “exploratory behavior of the cats” value ([3]; as from 15 days of treatment (FIG. 7)) was “perceptible activating effect” and the “cats exhibiting ambulation or vocalization periods” value ([3]; as from the second month (70% at the start)) was “no cat”. The “cats with a positive result on play activity” value ([3]; at 2 months (FIG. 8)) was 7 out of 10, the “interactions/recognition (owners, other animals)” value ([3]; cats which initially presented an interaction deficit (FIG. 9)) was “responded rather well” and the “interactions/recognition (owners, other animals)” value ([3]; cats which manifested hyperattachment (FIG. 9)) was “more variable”. The “periods of waking with a start or nightmares” value ([3]; during the 3-month study, 1,4-butanedisulfonate salt, mean 18 mg/kg/d) was “No cat”, the “efficacy as considered by the owners” value ([3]; end of the study (3 months)) was “very good” and the “cats with a return to a normal day-night cycle” value ([3]; in one month, 1,4-butanedisulfonate salt tablets, mean dose 18 mg/kg/d once a day (FIG. 5)) was 7 out of 10. The “cats in which aggressiveness or irritability was eliminated (number)” value ([3]; in three months (FIG. 10)) was 4 out of 5, the “manifestations of aggressiveness or irritability eliminated” value ([3]; in three months, encountered in 50% of the cats (FIG. 10)) was 80% and the side effects ([3]; in vivo) was “without causing side effects”. The overall fear score [4] was “decreases very substantially”.

From US20080199520A1, “S-Adenosyl-L-Methionine for Regulating Behavioral Disorders in Pets” (VIRBAC, priority 2005, published 2008)
